From patent US12037583B2, “Compositions and methods for immunooncology” (Novartis AG, priority 2015, dated 2024) come the findings set out here.

The subject of data set [1] is potential off-target genomic sites. As to the kind of experiment: Off-target editing assessment by oligo insertion assay in Cas9-expressing HEK293 cells. Type of data set: cell-based, human. The settings on record: dual guide RNA, FIG. 63, 64.
Description: A total of 34 guideRNAs (dual guide RNAs comprising the indicated targeting domain, modified or unmodified, as indicated) targeting B2M (5), TRAC (9), TRBC2 (2), PDCD1 (8), FKBP1A (5), or CIITA (5) were screened in the Cas9-expressing HEK293 cells described above in Example 1, and the results are plotted in FIG. 63 and FIG. 64.
Data set [2] relates to PDCD1. Description: NGS editing of PDCD1 by dgRNA in HEK cells stably expressing Cas9.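 Further: dgRNA lipofected into Cas9-expressing HEK cells, lysed after 24 h, target amplicon sequenced, editing = reads carrying insertions or deletions as percent of all reads including wild type.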 The settings on record: at least 3 experiments. It is filed as cell-based, human.
Description: Transfection of Cas9GFP-expressing HEK293 cells (HEK-293_Cas9GFP) was used for primary screening of target specific crRNAs. […] Selected crRNAs were chemically synthesized and delivered in a 96 well format. HEK-293-Cas9GFP cells were transfected with target crRNAs comprising a flagpole region of SEQ ID NO: 6607 in a 1:1 ratio with stock trRNA of SEQ ID NO: 6660. The transfection was mediated using lipofection technology according to manufacturer's protocol (DharmaFECT Duo, GE LifeSciences; or RNAiMax, LifeTechnologies). Transfected cells were lysed 24 h following lipofection and editing (e.g., cleavage) was detected within lysates with the T7E1 assay and/or next generation sequencing (NGS; below).
Editing of CRISPR systems containing dgRNA molecules comprising targeting domains to sequences of PDCD1 were tested for editing in HEK (gRNA delivered to cells stably expressing Cas9) and CD3+ T cells (gRNA and Cas9 delivered as RNP) according to the methods described herein.
All mean editing % are as measured by NGS and are based on at least 3 experiments.
Data set [3] relates to FKBP1A. As to the kind of experiment: S6 phosphorylation by flow cytometry with or without RAD001 after FKBP1A editing. It is filed as cell-based, human. Conditions: primary T cells; 2.5 nM RAD001 3 hours; FIG. 54. The procedure:
After thawing, isolated human T cells were activated with CD3/CD28 beads for 3 days at a bead to cell ratio of 3:1. Cells were then electroporated with RNP containing dual guide RNA molecules (as indicated, as described above in these examples), and Cas9 protein using the Neon instrument with the 100 ul tip kit. RNPs were prepared in the following manner. crRNA and trRNA (10 ul of each at 100 uM) were heated in separate tubes to 95 degrees C. for two minutes and then cooled for 5 minutes at room temperature. […]
After electroporation, cells were then transferred into a 6-well plate with 2 ml of T cell media with beads at a 3:1 bead to cell ratio. […] The phosphorylation of S6 was detected by flow cytometry, and was used as an indication of immunosuppressing by RAD001. […] Cells were then washed twice with PBS and analyzed by flow cytometry on the Becton Dickenson LSR Fortessa using FloJo-V10 software.
After electroporation cells were treated with 2.5 nM RAD001 (upper panel) or left untreated (lower panel) and the impact on mTOR pathway inhibition was evaluated by analyzing S6 phosphorylation (pS6) by flow cytometry. […] Positive staining for pS6 (shown in the gating trace) was determined by gating above the fluorescence level seen in a control stained with isotype antibody (not shown). Quantitation of S6 phosphorylation from the flow cytometry data is shown in the graph in the lower panel. […]

Data set [4] has as its system CD3E. Description: NGS editing and frameshift edit of CD3E by dgRNA in HEK-293(Cas9) cells. Type of data set: cell-based, human. The settings on record: dgRNA to CD3E in HEK-293(Cas9) cells. The source says:
Transfection of Cas9GFP-expressing HEK293 cells (HEK-293_Cas9GFP) was used for primary screening of target specific crRNAs. In this example, target specific crRNAs were designed and selected for primary screening using defined criteria including in silico off-target detection, e.g., as described herein. Selected crRNAs were chemically synthesized and delivered in a 96 well format. HEK-293-Cas9GFP cells were transfected with target crRNAs comprising a flagpole region of SEQ ID NO: 6607 in a 1:1 ratio with stock trRNA of SEQ ID NO: 6660. The transfection was mediated using lipofection technology according to manufacturer's protocol (DharmaFECT Duo, GE LifeSciences; or RNAiMax, LifeTechnologies). Transfected cells were lysed 24 h following lipofection and editing (e.g., cleavage) was detected within lysates with the T7E1 assay and/or next generation sequencing (NGS; below).
PCR primers were first designed around the target site, and the genomic area of interest PCR amplified. Additional PCR was performed according to manufacturer's protocols (Illumina) to add the necessary chemistry for sequencing. The amplicons were then sequenced on an Illumina MiSeq instrument. The reads were then aligned to the human reference genome (e.g., hg38) after eliminating those having low quality scores. From the resulting files containing the reads mapped to the reference genome (BAM files), reads which overlap the target region of interest were selected and the number of wild type reads versus the number of reads which contain an insertion or deletion was calculated. The editing percentage was then defined as the total number of reads with insertions or deletions over the total number of reads, including wild type. To determine the pattern of insertions and/or deletions that resulted from the edit, the aligned reads with indels were selected and the number of a reads with a given indel were summed.
dgRNA molecules comprising the indicated targeting domain were chemically synthesized, and editing assessed in HEK-293 cells by NGS as described in Example 1. […] Several gRNA molecules were able to edit more than 50% of the cells, including producing a frameshift mutation in more than 50% of the cells.

The test system of data set [5] is CIITA. Description: NGS editing and frameshift edit of CIITA by dgRNA in HEK293 cells expressing Cas9. The settings on record: HEK293 cells stably expressing Cas9, dgRNA to CIITA; for Avg. % Edit: N = 3; for Avg. % FS: frameshift edit. Type of data set: cell-based, human.
Protocol: Editing of CIITA with dgRNAs targeted to the CIITA gene were assayed in HEK293 cells engineered to express Cas9, as described above in Example 1.
Data set [6] concerns CIITA. Description: NGS editing and frameshift edit of CIITA in CD3+ primary human T cells (RNP). Conditions: dgRNA targeting CIITA delivered as RNP to CD3+ T cells. Type of data set: cell-based.
Description: The frequency of insertions or deletions is indicated (% indels) and the percentage of these edits that result in frameshifting of the coding sequence is shown (% frameshift edits).
PBMC were isolated from human blood (Hemacare) by using centrifugation method using Ficoll. […] These cells were aliquoted and frozen. These frozen cell aliquots were then thawed and activated using CD3/CD28 beads (DynaBeads Invitrogen Cat #111.41D) at bead to cell ratio of 3:1. On day 2 or day 3 after bead activation, 200,000 cells were removed from culture for electroporation. […] Next 1 μL of 100 μM crRNA was added, mixed and incubated for 10 min at 37° C. If more than one RNP was added during the electroporation step, each RNP with a crRNA targeting a different gene was assembled separately using the above method, then combined together with the addition of Cas9 buffer in order to obtain different RNP final concentrations for different conditions. For “triple editing”, i.e. simultaneous addition of 3 RNPs targeting different genes, details of RNP quantities are provided in the figures. The assembled RNPs were then mixed with 200,000 cells in 10 ul of T Buffer (neon transfection system 10 ul Kit). Electroporation was performed by Neon electroporator using Neon® Transfection System 10 μL Kit (MPK1096) at 1600V, 10 ms, 3 pulses. […] To evaluate the editing frequency and sequence changes resulting from gene editing in the above prepared T cells, genomic DNA was isolated and subjected to sequencing. Briefly, frozen cell pellets were thawed and processed using DNeasy Blood & Tissue Kit (Qiagen, 69506) to isolate genomic DNA. Eluted DNA was used to run PCR using Titanium Taq PCR kit (Clontech Laboratories, 639211) and primers in Table 27.
PCR product was purified using QIAquick PCR Purification Kit (Qiagen, 28104). […] PCR amplicons were subjected to standard Nextera NGS library prep (Illumina) and sequenced with paired-end reads on an Illumina MiSeq sequencer.
For data set [7], the system named is TRAC. As to the kind of experiment: Editing of TRAC by dgRNAs in HEK cells stably expressing Cas9 (NGS). It is filed as cell-based, human. The settings on record: dgRNA delivered to HEK cells stably expressing Cas9, target TRAC, mean of at least 3 experiments.
Description: (§1) FIG. 12: Mean (n≥3) editing of CRISPR systems with dgRNAs as indicated to TRAC in HEK cells (stably expressing Cas9) or primary human CD3+ T cells (delivery of dgRNA:Cas9 RNP by electroporation).
Data set [8] has as its system TRAC locus. As to the kind of experiment: Genomic editing of the TRAC locus in primary human CD3+ T cells by RNP electroporation (NGS: % indels, % frameshift edits, indel pattern).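 On all read-outs here: total edit is the insertion or deletion frequency at TRAC, and the frameshift value is the share of those indels that shift the coding frame.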 Type of data set: cell-based. Conditions: dgRNA/Cas9 RNP by electroporation, target TRAC; for mean FS edit (%): frameshift edits in primary human CD3+ T cells; for mean total % edit: primary human CD3+ T cells, mean of at least 3 experiments.
Description: as §1
FIG. 33C: Genomic editing of the TRAC locus resulting from human primary T cell electroporation with RNP containing the indicated gRNA targeting the TRAC locus is shown. The frequency of insertions or deletions is indicated (% indels) and the percentage of these edits that result in frameshifting of the coding sequence is shown (% frameshift edits).
Data for each experiment are the average from triplicate PCR products.

“CR000902: dgRNA targeting domain to PDCD1 (guide GCCCACGACACCAACCACCA; targeting domain within dual guide RNA, chemistry not given here, further chemistry not given here; listed as Homo sapiens)”: the “off-target editing in oligo insertion assay, in words” value in data set [1] is recorded as “no off-target editing was detected”. The “HEK (NGS) % Editing Mean” value in data set [2] is recorded as 72%.
With “CR002122: dgRNA targeting domain to FKBP1A (guide GUUCUUUUCACAGAUGAGUG; targeting domain within dual guide RNA, chemistry not given here, further chemistry not given here; listed as Homo sapiens)”, the “S6 phosphorylation under RAD001, in words” value in data set [3] is “refractory to the inhibitory effects of the rapalog RAD001”.
Consider “CR002230 (guide AGGCCUCUCUACUUCCUGUG; targeting domain within dual guide RNA, chemistry not given here, further chemistry not given here; listed as Homo sapiens)”, for which, in data set [4], the “Avg. % Edit (any indel)” value was 20.64% and the “Avg. Frameshift %” value amounted to 20.10%.
Regarding “CR002231 (guide GGCCUCUCUACUUCCUGUGU; targeting domain within dual guide RNA, chemistry not given here, further chemistry not given here; listed as Homo sapiens)”, in data set [4], the “Avg. % Edit (any indel)” value amounted to 13.83% and the “Avg. Frameshift %” value was 12.37%.
Consider “CR002976 (guide AUAGAAGUGGUAGAGGCACA; chemistry not given here; listed as Homo sapiens)”, for which, in data set [5], the “Avg. % Edit” value is reported as 45.36% and the “Avg. % FS” value is listed as 37.66%. Moreover, in data set [6], the Editing % is reported as 4.0% and the “Frameshift Edit %” value was 3.6%.
The corresponding values for “CR002978 (guide UCUGGUCAUAGAAGUGGUAG; chemistry not given here; listed as Homo sapiens)” are 38.34%, 34.11%, 4.7% and 2.7%.
For “CR002980 (guide GGUCCAUCUGGUCAUAGAAG; chemistry not given here; listed as Homo sapiens)”, in data set [5], the “Avg. % Edit” value is recorded as 50.30% and the “Avg. % FS” value is given as 42.41%. Also, in data set [6], the Editing % was determined as 6.1% and the “Frameshift Edit %” value was determined as 3.6%.
“CR002992 (guide UGGAAGGUGAUGAAGAGACC; chemistry not given here; listed as Homo sapiens)”: in data set [5], the “Avg. % Edit” value is 46.54% and the “Avg. % FS” value came to 31.23%. In addition, in data set [6], the Editing % worked out at 16.0% and the “Frameshift Edit %” value came to 11.6%.
Regarding “CR002993: dgRNA targeting domain to CIITA (guide GGAAGGUGAUGAAGAGACCA; chemistry not given here; listed as Homo sapiens)”, in data set [5], the “Avg. % Edit” value is given as 60.16% and the “Avg. % FS” value is 48.86%. Further, in data set [6], the Editing % was determined as 33.8% and the “Frameshift Edit %” value is listed as 27.2%.
As to “CR002994 (guide AGGUGAUGAAGAGACCAGGG; chemistry not given here; listed as Homo sapiens)”, in data set [5], the “Avg. % Edit” value is reported as 42.35% and the “Avg. % FS” value stood at 31.32%. For the same substance, in data set [6], the Editing % stood at 22.0% and the “Frameshift Edit %” value was 18.1%.
For “CR002995 (guide GAUAUUGGCAUAAGCCUCCC; chemistry not given here; listed as Homo sapiens)”, in that order: 52.74%, 43.64%, 3.1% and 2.5%.
Take “CR003001 (guide UUCCAGGACUCCCAGCUGGA; chemistry not given here; listed as Homo sapiens)”: in data set [5], the “Avg. % Edit” value is 47.64% and the “Avg. % FS” value came out at 43.30%. In data set [6], the Editing % is 36.3% and the “Frameshift Edit %” value is 32.0%.
The corresponding values for “CR003007: dgRNA targeting domain to CIITA (guide AUAGGACCAGAUGAAGUGAU; chemistry not given here; listed as Homo sapiens)” are 43.64%, 32.22%, 31.6% and 28.8%.
The corresponding values for “CR003013 (guide UGCCGGAAGCUCCUCUGGGA; chemistry not given here; listed as Homo sapiens)” are 37.75%, 29.94%, 11.5% and 9.0%.
On to “UUGCCGGGGGGGCACAGAGG (chemistry not given here; listed as Homo sapiens) [CR001013]”, for which, in data set [7], the mean % edit was 29.7%. In data set [8], the “mean FS edit (%)” value amounted to 17.6% and the “mean total % edit” value stood at 19.6%.
The substance “UUUCAAAACCUGUCAGUGAU (chemistry not given here; listed as Homo sapiens) [CR000982]” gave a mean % edit in data set [7] of 48.1%. Moreover, in data set [8], the “mean FS edit (%)” value turned out to be 23.2% and the “mean total % edit” value is 28.5%.
